How the values were obtained:
[1] = system: T-Rex 293 cell line SC3 cells lacking increased expression of androgen receptor protein; assay: Cellular growth inhibition, T-Rex 293 SC3 cells without doxycycline, CellTiter-Glo; type: cell-based; conditions: 72 h, T-Rex 293 SC3 cells not exposed to doxycycline, CellTiter-Glo 2.0
Experimental: The following types of cells were prepared for this experiment: (i) a T-Rex 293 cell line having increased expression of androgen receptor protein due to exposure to doxycycline and (ii) a T-Rex 293 cell line lacking increased expression of androgen receptor protein. Ability of the test compounds to inhibit proliferation of the foregoing cell types was evaluated according to the procedures set forth below.
The doxycycline-inducible androgen receptor protein expressing cell line was established using the following protocol: T-Rex 293 cells were purchased from Invitrogen (Cat #R71007) and transfected using Lipofectamine 2000 with the wild-type androgen receptor protein sequence cloned into the pcDNA4/TO vector. Transfected cells were selected using 400 μg/mL Zeocin (Invitrogen Cat #R25001). Following selection, single clones were raised and maintained in Dulbecco's Modified Eagle Medium (DMEM) supplemented with 10% w/w Tetracycline-free fetal bovine serum (FBS) and 250 μg/mL Zeocin. Clones were analyzed for expression of androgen receptor protein in the presence and absence of 10 ng/mL doxycycline (Sigma Cat #D9891), and a single doxycycline-inducible clone (hereinafter “SC3”) was selected for use in downstream assays.
The SC3 cells were seeded on poly-D-lysine coated, black clear-bottom 384-well plates at 2500/well, in 25 μL Phenol Red Free Dulbecco's Modified Eagle Medium (DMEM) supplemented with 10% w/w charcoal-dextran treated fetal bovine serum (FBS) and 1% w/w pen-strep, with or without 10 ng/mL doxycycline. Pen-Strep is a commercially available mixture of penicillin G and streptomycin, which is used in mammalian cell culture media to prevent bacterial contamination. Phenol Red Free Dulbecco's Modified Eagle Medium (DMEM) supplemented with 10% w/w charcoal-dextran treated fetal bovine serum (FBS) and 1% w/w pen-strep, with or without 10 ng/mL doxycycline is herein referred to as Treatment Medium. Following seeding of cells in the plates, the plates were spun at 300×g for 30 seconds, then equilibrated to room temperature for 30 minutes, and then deposited in a humidified tissue culture incubator maintained at 37° C. with 5% CO2.
At 24 hours after seeding of the cells, dilutions of test compound were prepared in DMSO and dissolved in Treatment Medium, to achieve a final DMSO concentration of 0.5% w/w, thereby providing the Test Compound Solution. A 25 μL aliquot of the Test Compound Solution was added to cells in the well plates. An equal volume of a solution containing DMSO and Treatment Medium was used as a negative control. Following treatment of cells with Test Compound Solution or said equal volume of a solution containing DMSO and Treatment Medium, the plates were spun at 300×g for 30 seconds, and then left in an incubator for 72 hours. At the end of the treatment duration, cell viability was quantified with CellTiter-Glo 2.0 reagent (Promega Cat #G9243). For this purpose, plates were equilibrated to room temperature for 30 minutes, and then 25 μL of CellTiter-Glo 2.0 reagent was added to cells in the plate wells. Plates were then agitated on a shaker for two minutes at 500 rpm and subsequently incubated at room temperature for 10 minutes. Following incubation, the plates were spun at 3000×g for 30 seconds, then sealed with an optical adhesive cover, and luminescence readings were measured with an EnVision Plate Reader. Data was normalized using zero luminescence for baseline. A four-parameter non-linear regression curve fit was applied to dose-response data in GraphPad Prism data analysis software to determine the half-maximal growth inhibitory concentration (GI50) for each test compound.

[2] = system: VCaP cells; assay: Cellular growth inhibition assay for VCaP cells, CellTiter-Glo; type: cell-based, human; conditions: 72 hours treatment, CellTiter-Glo 2.0
Experimental: VCaP cells were purchased from American Type Cell Culture (ATCC Cat #CRL2876) and then seeded on poly-D-lysine coated, black clear-bottom 384-well plates at 5000/well in 25 μL Dulbecco's Modified Eagle Medium (DMEM) supplemented with 10% w/w Fetal bovine serum (FBS) and 1% w/w Pen-Strep. Pen-Strep is a commercially available mixture of penicillin G and streptomycin, which is used in mammalian cell culture media to prevent bacterial contamination. Dulbecco's Modified Eagle Medium (DMEM) supplemented with 10% w/w fetal bovine serum (FBS) and 1% w/w Pen-Strep is herein referred to as Treatment Medium. Following seeding of cells in the plates, the plates were spun at 300×g for 30 seconds, then equilibrated to room temperature for 30 minutes, and then deposited in a humidified tissue culture incubator maintained at 37° C. with 5% CO2.
At 24 hours after seeding of the cells, dilutions of test compound were prepared in DMSO and dissolved in Treatment Medium, to achieve a final DMSO concentration of 0.5% w/w, thereby providing the Test Compound Solution. A 25 μL aliquot of the Test Compound Solution was added to cells in the well plates. An equal volume of a solution containing DMSO and Treatment Medium was used as a negative control. Following treatment of cells with Test Compound Solution or said equal volume of a solution containing DMSO and Treatment Medium, the plates were spun at 300×g for 30 seconds, and then left in an incubator for 72 hours.
At the end of the treatment duration, cell viability was quantified with CellTiter-Glo 2.0 reagent (Promega Cat #G9243). For this purpose, plates were equilibrated to room temperature for 30 minutes, and then 25 μL of CellTiter-Glo 2.0 reagent was added to cells in the plate wells. Plates were then agitated on a shaker for two minutes at 500 rpm and subsequently incubated at room temperature for 10 minutes. Following incubation, the plates were spun at 3000×g for 30 seconds, then sealed with an optical adhesive cover, and luminescence readings were measured with an EnVision Plate Reader.
Data was normalized using zero luminescence for baseline. A four-parameter non-linear regression curve fit was applied to dose-response data in GraphPad Prism data analysis software to determine the half-maximal growth inhibitory concentration (GI50) for each test compound.

[3] = system: T47D cells; assay: Cellular growth inhibition assay for T47D cells, CellTiter-Glo; type: cell-based, human; conditions: 72 hours treatment, CellTiter-Glo 2.0 cell viability
How it was run: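 Cells are plated at 3000/well and allowed 24 h before treatment. Test compound in medium containing 0.5% DMSO is then added, with DMSO-only wells as negative control, and plates are incubated 72 h at 37 °C. ATP luminescence (CellTiter-Glo 2.0) is then fitted to four parameters to derive GI50.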

GI50 ([2]; Homo sapiens, VCaP, 72 h) [nM] | GI50 [2] [nM] | GI50 [3] [nM] | GI50 ([3]; Homo sapiens, T47D, 72 h) [nM] | SMILES | GI50 [1] [nM]
< 500 |  |  |  | Cc1sc2c(c1C)C(c1ccc(N3C[C@H]4C[C@@H]3CN4c3ncc(C(=O)N[C@H]4C(C)(C)[C@H](Oc5ccc(C#N)c(Cl)c5)C4(C)C)cn3)cc1)=NC(Cc1ncco1)c1nnc(C)n1-2 (stereo partly shown) [Compound I-665] | < 500
< 500 |  |  |  | Cc1sc2c(c1C)C(c1ccc(N3C[C@H](F)C[C@@H](Nc4ncc(C(=O)N[C@H]5C(C)(C)[C@H](Oc6ccc(C#N)c(Cl)c6)C5(C)C)cn4)C3)cc1)=NC(Cc1ncco1)c1nnc(C)n1-2 (stereo partly shown) [Compound I-664] | < 500
 | 1500 to 3000 | > 3000 |  | Cc1sc2c(c1C)C(c1ccc(C(=O)N3CCC[C@@H](Cc4ncc(C(=O)N[C@H]5C(C)(C)[C@H](Oc6ccc(C#N)c(Cl)c6)C5(C)C)cn4)C3)cc1)=N[C@@H](Cc1ncco1)c1nnc(C)n1-2 [Compound I-319] | 
> 3000 |  |  | > 3000 | Cc1sc2c(c1C)C(c1ccc(N3CCC[C@H](C(=O)N4CCCC4c4ncc(C(=O)N[C@H]5C(C)(C)[C@H](Oc6ccc(C#N)c(Cl)c6)C5(C)C)cn4)C3)cc1)=N[C@H](Cc1ncco1)c1nnc(C)n1-2 (stereo partly shown) [Compound I-315] | 
500 to 1500 |  |  | 1500 to 3000 | Cc1sc2c(c1C)C(c1ccc(CC(=O)NCCc3ncc(C(=O)N[C@H]4C(C)(C)[C@H](Oc5ccc(C#N)c(Cl)c5)C4(C)C)cn3)cc1)=N[C@@H](Cc1ncco1)c1nnc(C)n1-2 [Compound I-440] | > 3000
< 500 |  |  | < 500 | Cc1sc2c(c1C)C(c1ccc(CCC[C@@H]3CCCN(c4ncc(C(=O)N[C@H]5C(C)(C)[C@H](Oc6ccc(C#N)c(Cl)c6)C5(C)C)cn4)C3)cc1)=N[C@@H](Cc1ncco1)c1nnc(C)n1-2 [Compound I-320] | 
> 3000 |  |  | 500 to 1500 | Cc1sc2c(c1C)C(c1ccc(C[C@@H]3CC[C@@H]4CN(c5ncc(C(=O)N[C@H]6C(C)(C)[C@H](Oc7ccc(C#N)c(Cl)c7)C6(C)C)cn5)CCN4C3)cc1)=C[C@@H](Cc1ncco1)c1nnc(C)n1-2 [Compound I-305] | 
> 3000 |  |  | > 3000 | Cc1sc2c(c1C)C(c1ccc(C[C@@H]3CC[C@]4(C3)CN(c3ncc(C(=O)N[C@H]5C(C)(C)[C@H](Oc6ccc(C#N)c(Cl)c6)C5(C)C)cn3)CCO4)cc1)=N[C@@H](Cc1ncco1)c1nnc(C)n1-2 [Compound I-308] | 
> 3000 |  |  | > 3000 | Cc1sc2c(c1C)C(c1ccc(C[C@@H]3CC[C@@]4(C3)CN(c3ncc(C(=O)N[C@H]5C(C)(C)[C@H](Oc6ccc(C#N)c(Cl)c6)C5(C)C)cn3)CCO4)cc1)=N[C@@H](Cc1ncco1)c1nnc(C)n1-2 [Compound I-309] | 
< 500 |  |  | < 500 | Cc1sc2c(c1C)C(c1ccc(CCC[C@H]3CCCN(c4ncc(C(=O)N[C@H]5C(C)(C)[C@H](Oc6ccc(C#N)c(Cl)c6)C5(C)C)cn4)C3)cc1)=N[C@@H](Cc1ncco1)c1nnc(C)n1-2 [Compound I-321] | 
< 500 |  |  | 500 to 1500 | Cc1sc2c(c1C)C(c1ccc(CNC(=O)Cc3ncc(C(=O)N[C@H]4C(C)(C)[C@H](Oc5ccc(C#N)c(Cl)c5)C4(C)C)cn3)cc1)=N[C@@H](Cc1ncco1)c1nnc(C)n1-2 [Compound I-316] | 
< 500 |  |  |  | Cc1sc2c(c1C)C(c1ccc(N3CCC[C@@H](CNc4ncc(C(=O)N[C@H]5C(C)(C)[C@H](Oc6ccc(C#N)c(Cl)c6)C5(C)C)cn4)C3)cc1)=NC(Cc1ncco1)c1nnc(C)n1-2 (stereo partly shown) [Compound I-662] | 500 to 1500
< 500 |  |  | < 500 | Cc1sc2c(c1C)C(c1ccc(CCO[C@H]3CCCN(c4ncc(C(=O)N[C@H]5C(C)(C)[C@H](Oc6ccc(C#N)c(Cl)c6)C5(C)C)cn4)C3)cc1)=N[C@@H](Cc1ncco1)c1nnc(C)n1-2 [Compound I-323] | 
< 500 |  |  |  | Cc1sc2c(c1C)C(c1ccc(NCCN3CCN(c4ncc(C(=O)N[C@H]5C(C)(C)[C@H](Oc6ccc(C#N)c(Cl)c6)C5(C)C)cn4)CC3)cc1)=NC(Cc1ncco1)c1nnc(C)n1-2 (stereo partly shown) [Compound I-661] | < 500
< 500 |  |  | < 500 | Cc1sc2c(c1C)C(c1ccc(C[C@@H]3CC[C@@H]4CN(c5ncc(C(=O)N[C@H]6C(C)(C)[C@H](Oc7ccc(C#N)c(Cl)c7)C6(C)C)cn5)CCN4C3)cc1)=N[C@H](Cc1ncco1)c1nnc(C)n1-2 [Compound I-307] | 
< 500 |  |  |  | Cc1sc2c(c1C)C(c1ccc(N[C@H]3CC[C@H](Nc4ncc(C(=O)N[C@H]5C(C)(C)[C@H](Oc6ccc(C#N)c(Cl)c6)C5(C)C)cn4)CC3)cc1)=N[C@@H](Cc1ncco1)c1nnc(C)n1-2 [Compound I-663] | < 500
< 500 |  |  | < 500 | Cc1sc2c(c1C)C(c1ccc(CCO[C@@H]3CCCN(c4ncc(C(=O)N[C@H]5C(C)(C)[C@H](Oc6ccc(C#N)c(Cl)c6)C5(C)C)cn4)C3)cc1)=N[C@@H](Cc1ncco1)c1nnc(C)n1-2 [Compound I-322] | 
> 3000 |  |  | > 3000 | Cc1sc2c(c1C)C(c1ccc(C(=O)N3CCC[C@@H](Cc4ncc(C(=O)N[C@H]5C(C)(C)[C@H](Oc6ccc(C#N)c(Cl)c6)C5(C)C)cn4)C3)cc1)=N[C@@H](Cc1ncco1)c1nnc(C)n1-2 [Compound I-318] | 
< 500 |  |  | < 500 | Cc1sc2c(c1C)C(c1ccc(C[C@H]3CC[C@]4(C3)CN(c3ncc(C(=O)N[C@H]5C(C)(C)[C@H](Oc6ccc(C#N)c(Cl)c6)C5(C)C)cn3)CCO4)cc1)=N[C@@H](Cc1ncco1)c1nnc(C)n1-2 [Compound I-310] | 
< 500 |  |  | > 3000 | Cc1sc2c(c1C)C(c1ccc(C[C@H]3CC[C@@H]4CN(c5ncc(C(=O)N[C@H]6C(C)(C)[C@H](Oc7ccc(C#N)c(Cl)c7)C6(C)C)cn5)CCN4C3)cc1)=N[C@@H](Cc1ncco1)c1nnc(C)n1-2 [Compound I-304] | 
< 500 |  |  | < 500 | Cc1sc2c(c1C)C(c1ccc(OC3CCN(C4CCN(c5ncc(C(=O)N[C@H]6C(C)(C)[C@H](Oc7ccc(C#N)c(Cl)c7)C6(C)C)cn5)CC4)CC3)cc1)=N[C@@H](Cc1ncco1)c1nnc(C)n1-2 [Compound I-313] | 
